Experimental data reported in patent publication US9957273B2, “5-substituted 7- [4-(2-pyridyl)phenylmethylamino] -3-isopropylpyrazolo4,3-D]pyrimidine derivatives, use thereof as medicaments, and pharmaceutical compositions” (USTAV EXPERIMENTALNI BOTANIKY AV CR, V.V.I., priority 2015, dated 2018).
Read-outs that look alike come from different tables or passages of the source.

Legend:
[1] = target: T1, CDK2/Cyclin E (Homo sapiens, UniProt P24941); assay: CDK2/Cyclin E kinase inhibition (33P-ATP, histone H1); format: biochemical; details: 15 μM ATP
T1 construct: made in house; host or cells: Sf9 insect cells (baculovirus)
Method: CDK2/Cyclin E kinase was produced in Sf9 insect cells via baculoviral infection and purified on a NiNTA column (Qiagen). The kinase reactions were assayed with 1 mg/mL histone H1 in the presence of 15 μM ATP, 0.05 μCi [γ-^33P]ATP and of the test compound in a final volume of 10 μL, all in a reaction buffer (60 mM HEPES-NaOH, pH 7.5, 3 mM MgCl2, 3 mM MnCl2, 3 μM Na-orthovanadate, 1.2 mM DTT, 2.5 μg/50 μl PEG20.000). CDK5/p35 was purchased from ProQinase GmbH. The kinase reactions were assayed with 1 mg/mL histone H1 in the presence of 0.15 μM ATP, 0.05 μCi [γ-^33P]ATP and of the test compound in a final volume of 10 μL, all in a reaction buffer (60 mM HEPES-NaOH, pH 7.5, 3 mM MgCl2, 3 mM MnCl2, 3 μM Na-orthovanadate, 1.2 mM DTT, 2.5 μg/50 μl PEG20.000).
(§1) The reactions were stopped by adding 5 μL of 3% aq H3PO4. Aliquots were spotted onto P-81 phosphocellulose (Whatman), washed 3× with 0.5% aq H3PO4 and finally air-dried.

[2] = system: PANC-1 (pancreatic carcinoma); assay: MTT cytotoxicity assay, solid cancer cell line PANC-1; format: cell-based; details: Homo sapiens, PANC-1, 72 h, three days
Method: (§2) The compounds were assayed using the following cell lines: G361 (malignant melanoma), MCF7 (breast adenocarcinoma), PLC/PRF/5 (liver hepatoma), PANC-1 (pancreatic carcinoma) and HCT116 (colon carcinoma). All cell lines were grown in DMEM medium supplemented with fetal bovine serum and L-glutamine and maintained at 37° C. in a humidified atmosphere with 5% CO2. For cytotoxicity assays, 4000-10000 cells were seeded into each well of a 96 well plate, allowed to stabilize for at least 16 h and then tested compounds were added at various concentrations ranging from 100 to 0.01 μM in triplicates. After three days, MTT solution (5 mg/ml; Sigma, St. Louis, USA) was added to cells and medium was replaced with DMSO after five hours. The absorbance was measured at 620 nm by employing a microplate reader. MTT assays were repeated 3 times for each drug application and untreated cells were used as reference.

[3] = system: MV4;11 (acute myelocytic leukemia); assay: MTT cytotoxicity assay, leukemic cell line MV4;11; format: cell-based; details: three days
Source text: (§3) Cytotoxicity of the compounds is the major property determining their antileukemic efficacy in vivo. One of the parameters used, as the basis for cytotoxicity assays, is the metabolic activity of viable cells. For example, a microtiter assay, which uses (3-(4,5-dimethylthiazol-2-yl)-2,5-diphenyltetrazolium bromide (MTT), is widely used to quantitate cell proliferation and cytotoxicity. This assay is widely used in drug screening programs and in chemosensitivity testing. Because only metabolically active living cells reduce MTT to correspond purple formazan dye, these assays detect viable cells exclusively. The quantity of reduced MTT corresponds to the number of vital cells in the culture.
as §2, with “following leukemic” for “following”, “K562 (human chronic myelogenous leukaemia), HL60 (human promyelocytic leukaemia), CEM (human lymphoblastoid leukaemia), THP1 (human monocytic cell line), MV4; 11 (acute myelocytic leukemia).” for “G361 (malignant melanoma), MCF7 (breast adenocarcinoma), PLC/PRF/5 (liver hepatoma), PANC-1 (pancreatic carcinoma) and HCT116 (colon carcinoma).”, “RPMI” for “DMEM”, “2000-5000” for “4000-10000”, “of” for “of a”, “8” for “16”

[4] = system: HCT116 (colon carcinoma); assay: MTT cytotoxicity assay, solid cancer cell line HCT116; format: cell-based; details: Homo sapiens, HCT-116, 72 h, three days
Method: as §2

[5] = system: THP1 (human monocytic cell line); assay: MTT cytotoxicity assay, leukemic cell line THP1; format: cell-based; details: three days
Source text: as §3
as §2, with “following leukemic” for “following”, “K562 (human chronic myelogenous leukaemia), HL60 (human promyelocytic leukaemia), CEM (human lymphoblastoid leukaemia), THP1 (human monocytic cell line), MV4; 11 (acute myelocytic leukemia).” for “G361 (malignant melanoma), MCF7 (breast adenocarcinoma), PLC/PRF/5 (liver hepatoma), PANC-1 (pancreatic carcinoma) and HCT116 (colon carcinoma).”, “RPMI” for “DMEM”, “2000-5000” for “4000-10000”, “of” for “of a”, “8” for “16”

[6] = system: G361 (malignant melanoma); assay: MTT cytotoxicity assay, solid cancer cell line G361; format: cell-based; details: Homo sapiens, G-361, 72 h, three days
Method: as §2

[7] = system: CEM (human lymphoblastoid leukaemia); assay: MTT cytotoxicity assay, leukemic cell line CEM; format: cell-based; details: three days
Source text: as §3
as §2, with “following leukemic” for “following”, “K562 (human chronic myelogenous leukaemia), HL60 (human promyelocytic leukaemia), CEM (human lymphoblastoid leukaemia), THP1 (human monocytic cell line), MV4; 11 (acute myelocytic leukemia).” for “G361 (malignant melanoma), MCF7 (breast adenocarcinoma), PLC/PRF/5 (liver hepatoma), PANC-1 (pancreatic carcinoma) and HCT116 (colon carcinoma).”, “RPMI” for “DMEM”, “2000-5000” for “4000-10000”, “of” for “of a”, “8” for “16”

[8] = system: K562 (human chronic myelogenous leukaemia); assay: MTT cytotoxicity assay, leukemic cell line K562; format: cell-based; details: three days
Source text: as §3
as §2, with “following leukemic” for “following”, “K562 (human chronic myelogenous leukaemia), HL60 (human promyelocytic leukaemia), CEM (human lymphoblastoid leukaemia), THP1 (human monocytic cell line), MV4; 11 (acute myelocytic leukemia).” for “G361 (malignant melanoma), MCF7 (breast adenocarcinoma), PLC/PRF/5 (liver hepatoma), PANC-1 (pancreatic carcinoma) and HCT116 (colon carcinoma).”, “RPMI” for “DMEM”, “2000-5000” for “4000-10000”, “of” for “of a”, “8” for “16”

[9] = target: T2, CDK5/p35 (Homo sapiens, UniProt Q00535); assay: CDK5/p35 kinase inhibition (33P-ATP, histone H1); format: biochemical; details: 0.15 μM ATP
T2 construct: purchased ProQinase GmbH
T2 sequence (Q00535 whole entry): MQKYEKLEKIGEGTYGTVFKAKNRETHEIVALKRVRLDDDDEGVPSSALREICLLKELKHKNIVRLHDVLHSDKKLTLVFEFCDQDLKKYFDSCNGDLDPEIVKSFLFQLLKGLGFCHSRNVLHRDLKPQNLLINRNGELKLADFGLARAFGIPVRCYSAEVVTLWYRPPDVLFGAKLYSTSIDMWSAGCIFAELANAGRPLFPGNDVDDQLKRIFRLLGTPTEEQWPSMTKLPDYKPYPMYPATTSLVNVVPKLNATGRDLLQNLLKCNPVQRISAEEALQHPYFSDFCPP
T2 sequence (Q15078 whole entry partner): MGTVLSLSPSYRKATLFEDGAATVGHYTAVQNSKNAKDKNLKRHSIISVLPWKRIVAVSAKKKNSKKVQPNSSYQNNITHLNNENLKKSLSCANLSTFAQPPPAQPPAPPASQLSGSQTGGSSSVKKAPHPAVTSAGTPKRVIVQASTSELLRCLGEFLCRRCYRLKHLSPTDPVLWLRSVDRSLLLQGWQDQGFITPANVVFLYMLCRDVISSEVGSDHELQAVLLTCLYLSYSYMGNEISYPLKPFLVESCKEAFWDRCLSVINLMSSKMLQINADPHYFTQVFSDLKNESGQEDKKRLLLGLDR
Method: CDK2/Cyclin E kinase was produced in Sf9 insect cells via baculoviral infection and purified on a NiNTA column (Qiagen). […] CDK5/p35 was purchased from ProQinase GmbH.
as §1

[10] = system: HL60 (human promyelocytic leukaemia); assay: MTT cytotoxicity assay, leukemic cell line HL60; format: cell-based; details: three days
Source text: as §3
as §2, with “following leukemic” for “following”, “K562 (human chronic myelogenous leukaemia), HL60 (human promyelocytic leukaemia), CEM (human lymphoblastoid leukaemia), THP1 (human monocytic cell line), MV4; 11 (acute myelocytic leukemia).” for “G361 (malignant melanoma), MCF7 (breast adenocarcinoma), PLC/PRF/5 (liver hepatoma), PANC-1 (pancreatic carcinoma) and HCT116 (colon carcinoma).”, “RPMI” for “DMEM”, “2000-5000” for “4000-10000”, “of” for “of a”, “8” for “16”

[11] = system: PLC/PRF/5 (liver hepatoma); assay: MTT cytotoxicity assay, solid cancer cell line PLC/PRF/5; format: cell-based; details: Homo sapiens, PLC-PRF-5, 72 h, three days
Method: as §2

[12] = system: MCF7 (breast adenocarcinoma); assay: MTT cytotoxicity assay, solid cancer cell line MCF7; format: cell-based; details: Homo sapiens, MCF7, 72 h, three days
Method: as §2

[13] = system: HUVECs (human umbilical vein endothelial cells); assay: HUVEC proliferation assay (crystal violet); format: cell-based; details: 72 h, read-out: Inhibition of proliferation (EC50)
Method: To verify that novel compounds have anti-vascularisation properties, we analyzed their influence on the proliferation and migration of HUVECs. HUVECs (human umbilical vein endothelial cells) were purchased from Promocell (Heidelberg, Germany) and cultured in endothelial cell growth medium (ECGM, Promocell, Heidelberg, Germany) containing 10% FCS (Biochrom, Berlin, Germany). Experiments were performed using cells at passage 3.
For proliferation assay, 1.5×10^3 HUVECs were cultured for 24 h. Afterwards, cells were either left untreated or treated with novel compounds for 72 h. Proliferation assay was performed using crystal violet as described previously (Koltermann et al. 2007, Cell Mol. Life Sci. 64:1715-1722).

| Structure (SMILES) | IC50 [1] [µM] | IC50 [9] [µM] | IC50 [2] [µM] | IC50 ([3]; Homo sapiens, MV4-11, 72 h) [µM] | IC50 [4] [µM] | IC50 ([5]; Homo sapiens, THP-1, 72 h) [µM] | IC50 [6] [µM] | IC50 ([7]; Homo sapiens, 72 h) [µM] | IC50 ([8]; Homo sapiens, K562, 72 h) [µM] | IC50 ([10]; Homo sapiens, HL-60, 72 h) [µM] | IC50 [11] [µM] | IC50 [12] [µM] | EC50 ([13]; Homo sapiens, HUVEC) [nM] | EC50 [13] [nM] | IC50 [3] [µM] | IC50 [5] [µM] | IC50 [7] [µM] | IC50 [8] [µM] | IC50 [10] [µM] |
| --- | --- | --- | --- | --- | --- | --- | --- | --- | --- | --- | --- | --- | --- | --- | --- | --- | --- | --- | --- |
| CC(C)c1n[nH]c2c(NCc3ccc(-c4ccccn4)cc3)nc(N[C@@H]3CCCC[C@H]3N)nc12 (relative stereo) [Compound 64] | 0.046 | 0.088 | 0.08 | 0.09 | 0.34 | 0.04 | 0.15 | 0.05 | 0.1 | 0.09 | 0.14 | 0.22 |  |  |  |  |  |  |  |
| CSc1nc(NCc2ccc(-c3ccccn3)cc2)c2[nH]nc(C(C)C)c2n1 [Compound 5] |  | 0.229 | 0.65 | 0.6 | 1.3 | 0.32 | 0.24 | 0.94 | 0.78 | 0.86 | 0.7 | 0.81 | 234 |  |  |  |  |  |  |
| CC(C)c1n[nH]c2c(NCc3ccc(-c4ccccn4)cc3)nc(S(C)(=O)=O)nc12 [Compound 8, 3-Isopropyl-5-methylsulfonyl-7-[4-(2-pyridyl)benzyl]amino-1(2)H-pyrazolo[4,3-d]pyridine] |  |  |  |  |  |  |  |  |  |  |  |  |  | 569 |  |  |  |  |  |
| CC(C)c1[nH]nc2c(NCc3ccc(-c4ccccn4)cc3)nc(N3CCOCC3)nc12 [Compound 9] |  | 0.005 | 0.3 | 0.36 | 0.42 | 0.18 | 0.25 | 0.07 | 0.11 | 0.1 | 0.21 | 0.16 | 136 |  |  |  |  |  |  |
| CC(C)c1[nH]nc2c(NCc3ccc(-c4ccccn4)cc3)nc(N3CCCCC3)nc12 [Compound 14] | 0.042 | 0.18 |  |  |  |  |  |  |  |  |  |  |  |  |  |  |  |  |  |
| CC(C)c1n[nH]c2c(NCc3ccc(-c4ccccn4)cc3)nc(N[C@H](C)CCO)nc12 [Compound 31] |  |  |  |  |  |  |  |  |  |  |  |  |  |  | 0.31 | 0.26 | 0.21 | 0.39 | 0.24 |

Continued by falling IC50 [9], values first:

| IC50 [1] [µM] | IC50 [9] [µM] | Structure (SMILES) | IC50 [2] [µM] | IC50 ([3]; Homo sapiens, MV4-11, 72 h) [µM] | IC50 [4] [µM] | IC50 ([5]; Homo sapiens, THP-1, 72 h) [µM] | IC50 [6] [µM] | IC50 ([7]; Homo sapiens, 72 h) [µM] | IC50 ([8]; Homo sapiens, K562, 72 h) [µM] | IC50 ([10]; Homo sapiens, HL-60, 72 h) [µM] | IC50 [11] [µM] | IC50 [12] [µM] | EC50 ([13]; Homo sapiens, HUVEC) [nM] | EC50 [13] [nM] | IC50 [3] [µM] | IC50 [5] [µM] | IC50 [7] [µM] | IC50 [8] [µM] | IC50 [10] [µM] |
| --- | --- | --- | --- | --- | --- | --- | --- | --- | --- | --- | --- | --- | --- | --- | --- | --- | --- | --- | --- |
|  | 0.422 | CC(C)c1[nH]nc2c(NCc3ccc(-c4ccccn4)cc3)nc(N3CCN(CCO)CC3)nc12 [Compound 17] | 0.34 | 0.37 | 0.4 | 0.3 | 0.24 | 0.11 | 0.15 | 0.26 | 0.73 | 0.19 | 95 |  |  |  |  |  |  |
|  | 0.183 | CC(C)c1n[nH]c2c(NCc3ccc(-c4ccccn4)cc3)ncnc12 [Compound 2] | 0.46 | 0.47 | 1.2 | 0.56 | 0.78 | 0.8 |  | 0.92 | 0.97 |  |  |  |  |  |  |  |  |
| 0.039 | 0.0149 | CC(C)c1[nH]nc2c(NCc3ccc(-c4ccccn4)cc3)nc(NCCCO)nc12 [Compound 29] |  | 0.27 |  | 0.14 |  | 0.09 | 0.1 | 0.18 |  |  |  |  |  |  |  |  |  |
